Values joined by “and” are separate entries in the source; they are usually repeats but may differ in a detail not shown here. Equal values may be shown once. Inconclusive results and toxic doses are left out. No stated cut-off is given here; in the data, active means T/C of 150% or more; inactive means T/C below 125%.
Test system: L1210 leukemia ip in BDF1 mice, survival T/C
Test: NCI In Vivo Anticancer Drug Screen. Data for tumor model L1210 Leukemia (intraperitoneal) in B6D2F1 (BDF1) mice
Details: endpoint: mean survival time, higher = longer survival
Method in brief: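 Tumor cells were implanted, animals were treated, and survival was followed. The result divides the treated measurement by the vehicle-control measurement.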

[1] = dose: 25.0 mg/kg/injection, schedule: Q01DX009 (ip), vehicle: Klucel (hydroxypropylcellulose) (HPC)
[2] = dose: 50.0 mg/kg/injection, schedule: Q01DX009 (ip), vehicle: Klucel (hydroxypropylcellulose) (HPC)
[3] = dose: 100.0 mg/kg/injection, schedule: Q04DX003 (ip), vehicle: Klucel (hydroxypropylcellulose) (HPC)
[4] = dose: 100.0 mg/kg/injection, schedule: Q04DX002 (ip), vehicle: Klucel (hydroxypropylcellulose) (HPC)
[5] = dose: 200.0 mg/kg/injection, schedule: Q04DX002 (ip), vehicle: Klucel (hydroxypropylcellulose) (HPC)
[6] = dose: 400.0 mg/kg/injection, schedule: Q04DX002 (ip), vehicle: Klucel (hydroxypropylcellulose) (HPC)
[7] = dose: 100.0 mg/kg/injection, schedule: Q01DX001 (ip), vehicle: saline with Tween-80
[8] = dose: 200.0 mg/kg/injection, schedule: Q01DX001 (ip), vehicle: saline with Tween-80
[9] = dose: 400.0 mg/kg/injection, schedule: Q01DX001 (ip), vehicle: saline with Tween-80
[10] = dose: 100.0 mg/kg/injection, schedule: Q01DX001 (ip), vehicle: saline
[11] = dose: 200.0 mg/kg/injection, schedule: Q01DX001 (ip), vehicle: saline
[12] = dose: 400.0 mg/kg/injection, schedule: Q01DX001 (ip), vehicle: saline
[13] = dose: 100.0 mg/kg/injection, schedule: Q01DX009 (ip), vehicle: saline
[14] = dose: 100.0 mg/kg/injection, schedule: Q04DX003 (ip), vehicle: saline
[15] = dose: 200.0 mg/kg/injection, schedule: Q01DX009 (ip), vehicle: saline
[16] = dose: 200.0 mg/kg/injection, schedule: Q04DX003 (ip), vehicle: saline
[17] = dose: 400.0 mg/kg/injection, schedule: Q01DX009 (ip), vehicle: saline
[18] = dose: 400.0 mg/kg/injection, schedule: Q04DX003 (ip), vehicle: saline

Measured: T/C

Cc1ccc(C(=O)Nc2c(N)ncnc2N)cc1[N+](=O)[O-]
inactive: dose: 75.0 mg/kg/injection, schedule: Q01DX001 (ip), vehicle: saline with Tween-80 101 % of control | dose: 150.0 mg/kg/injection, schedule: Q01DX001 (ip), vehicle: saline with Tween-80 98 % of control | dose: 300.0 mg/kg/injection, schedule: Q01DX001 (ip), vehicle: saline with Tween-80 102 % of control

NC(=O)C1(Nc2ccc(-c3ccccc3)cc2)CCCC1
inactive: dose: 50.0 mg/kg/injection, schedule: Q01DX001 (ip), vehicle: carboxymethylcellulose (CMC) 96 % of control | dose: 100.0 mg/kg/injection, schedule: Q01DX001 (ip), vehicle: carboxymethylcellulose (CMC) 96 % of control | dose: 200.0 mg/kg/injection, schedule: Q01DX001 (ip), vehicle: carboxymethylcellulose (CMC) 88 % of control | dose: 400.0 mg/kg/injection, schedule: Q01DX001 (ip), vehicle: carboxymethylcellulose (CMC) 90 % of control

C/C(=N/NC(=S)Nc1cc(I)ccc1C)c1cc(C)ccc1O
inactive: dose: 12.5 mg/kg/injection, schedule: Q04DX002 (ip), vehicle: Klucel (hydroxypropylcellulose) (HPC) 97 % of control | dose: 25.0 mg/kg/injection, schedule: Q04DX002 (ip), vehicle: Klucel (hydroxypropylcellulose) (HPC) 102 % of control | dose: 50.0 mg/kg/injection, schedule: Q04DX002 (ip), vehicle: Klucel (hydroxypropylcellulose) (HPC) 94 % of control

CCC1(C)C(=O)N(C)C(=O)N1Br (stereo unspecified)
inactive: [1] 96 % of control | [2] 101 % of control | [3] 97 % of control

CCCCCCCCCCCCCCCC(=O)NCC(C)NC(=O)CCCCCCCCCCCCCCC (stereo unspecified)
inactive: dose: 75.0 mg/kg/injection, schedule: Q01DX001 (ip), vehicle: saline 95 % of control | dose: 150.0 mg/kg/injection, schedule: Q01DX001 (ip), vehicle: saline 96 % of control | dose: 300.0 mg/kg/injection, schedule: Q01DX001 (ip), vehicle: saline 103 % of control

C1=C(c2ccccc2)N(C2CCCCCC2)C(c2ccccc2)=CN1Cc1ccccc1
inactive: [4] 96 % of control | [5] 107 % of control | [6] 100 % of control

c1cc[c]([Sn]([c]2ccccc2)[c]2ccccc2)cc1.c1ccc([Si](c2ccccc2)c2ccccc2)cc1
inactive: dose: 64.0 mg/kg/injection, schedule: Q04DX002 (ip), vehicle: saline with Tween-80 86 % of control | dose: 160.0 mg/kg/injection, schedule: Q04DX002 (ip), vehicle: saline with Tween-80 86 % of control | dose: 400.0 mg/kg/injection, schedule: Q04DX002 (ip), vehicle: saline with Tween-80 86 % of control

CN(N=O)C(=O)NC1C(CO)OC2OC(C)(C)OC21 (stereo unspecified)
inactive: dose: 100.0 mg/kg/injection, schedule: Q01DX009 (ip), vehicle: saline sonified 124 % of control | dose: 400.0 mg/kg/injection, schedule: Q01DX009 (ip), vehicle: saline sonified 119 % of control

COc1ccc(N2C(=O)OC3(CCN(Cc4ccccc4)CC3)C2=O)cc1
inactive: dose: 100.0 mg/kg/injection, schedule: Q01DX001 (ip), vehicle: Klucel (hydroxypropylcellulose) (HPC) 96 % of control | dose: 200.0 mg/kg/injection, schedule: Q01DX001 (ip), vehicle: Klucel (hydroxypropylcellulose) (HPC) 103 % of control | dose: 400.0 mg/kg/injection, schedule: Q01DX001 (ip), vehicle: Klucel (hydroxypropylcellulose) (HPC) 92 % of control

CCC(=O)OCc1cc2ccccc2c(-c2c(OC(=O)CC)c(COC(=O)CC)cc3ccccc23)c1OC(=O)CC
inactive: [7] 106 % of control | [8] 113 % of control | [9] 88 % of control

C/C=C1\CN(C(=O)C(NC(=O)C(N)C(O)C(O)COC(N)=O)C2OC(n3cc(C(=O)O)c(=O)[nH]c3=O)C(O)C2O)C1C(=O)O (stereo unspecified) (tested in a mixture with another compound)
inactive: [10] 109 % of control | [11] 103 % of control | [12] 97 % of control

N/N=C/C=N/Nc1cnccn1
inactive: dose: 100.0 mg/kg/injection, schedule: Q01DX009 (ip), vehicle: Klucel (hydroxypropylcellulose) (HPC) 106 % of control | dose: 200.0 mg/kg/injection, schedule: Q01DX009 (ip), vehicle: Klucel (hydroxypropylcellulose) (HPC) 86 % of control

O=C1CC(c2cccc(S(=O)(=O)F)c2)=NN1c1ccc([N+](=O)[O-])cn1
inactive: [3] 102 % of control | dose: 200.0 mg/kg/injection, schedule: Q04DX003 (ip), vehicle: Klucel (hydroxypropylcellulose) (HPC) 105 % of control | dose: 400.0 mg/kg/injection, schedule: Q04DX003 (ip), vehicle: Klucel (hydroxypropylcellulose) (HPC) 91 % of control

O=c1[nH]cc(CC(F)(F)C(F)(F)F)c(=O)[nH]1
inactive: dose: 50.0 mg/kg/injection, schedule: Q01DX005 (ip), vehicle: other 87 % of control

Cc1cc(N(CCCl)CCCl)ccc1C=Nc1ccc2c(c1)nc(C)n2C
inactive: [4] 93 % of control | [5] 112 % of control | [6] 97 % of control

Cc1nnc([N+](=O)[O-])s1
inactive: dose: 12.5 mg/kg/injection, schedule: Q01DX009 (ip), vehicle: Klucel (hydroxypropylcellulose) (HPC) 107 % of control | [1] 112 % of control | [2] 102 % of control

CN1CCC(OC(N)=O)CC1
inactive: [13] 99 % of control | [14] 103 % of control | [15] 104 % of control | [16] 103 % of control | [17] 96 % of control | [18] 101 % of control

NC(CC(O)C(=O)O)C(=O)O (stereo unspecified)
inactive: dose: 12.5 mg/kg/injection, schedule: Q04DX002 (ip), vehicle: saline 95 % of control | dose: 25.0 mg/kg/injection, schedule: Q04DX002 (ip), vehicle: saline 106 % of control and 96 % of control | dose: 50.0 mg/kg/injection, schedule: Q04DX002 (ip), vehicle: saline 106 % of control and 96 % of control | [7] 93 % of control | dose: 100.0 mg/kg/injection, schedule: Q04DX002 (ip), vehicle: saline 101 % of control | [8] 97 % of control | [9] 87 % of control

COC(=O)C#CCCC#CC(C)=O
inactive: dose: 18.0 mg/kg/injection, schedule: Q04DX002 (ip), vehicle: gum acacia 96 % of control | dose: 37.0 mg/kg/injection, schedule: Q04DX002 (ip), vehicle: gum acacia 107 % of control | dose: 75.0 mg/kg/injection, schedule: Q04DX002 (ip), vehicle: gum acacia 102 % of control and 104 % of control

O=C(Nc1ccc(Cl)cc1C(=O)c1ccccc1)c1ccc([N+](=O)[O-])cc1
inactive: [4] 89 % of control | [5] 95 % of control | [6] 92 % of control

NC(Cc1cc(Br)c(O)c(Br)c1)C(=O)O (stereo unspecified)
inactive: [10] 97 % of control | [13] 90 % of control | [14] 103 % of control | [11] 97 % of control | [15] 109 % of control | [16] 98 % of control | [12] 91 % of control | [17] 93 % of control | [18] 97 % of control

N/N=C/NN=C(N)N
inactive: dose: 15.0 mg/kg/injection, schedule: Q01DX Z (ip), vehicle: saline 97 % of control | dose: 30.0 mg/kg/injection, schedule: Q01DX Z (ip), vehicle: saline 107 % of control | dose: 60.0 mg/kg/injection, schedule: Q01DX Z (ip), vehicle: saline 100 % of control | dose: 120.0 mg/kg/injection, schedule: Q01DX Z (ip), vehicle: saline 100 % of control | dose: 120.0 mg/kg/injection, schedule: Q01DX Z (oral), vehicle: saline 114 % of control

O=Cc1c[nH]c2nccnc12
inactive: [13] 94 % of control | [14] 96 % of control | [15] 97 % of control | [16] 93 % of control | [17] 100 % of control | [18] 93 % of control

CCC/C=C\COc1ccc(C(=O)OCC)cc1
inactive: dose: 100.0 mg/kg/injection, schedule: Q04DX002 (ip), vehicle: other 111 % of control | dose: 200.0 mg/kg/injection, schedule: Q04DX002 (ip), vehicle: other 108 % of control | dose: 400.0 mg/kg/injection, schedule: Q04DX002 (ip), vehicle: other 97 % of control

CC1CC(C(C)(C)C)CCC1S (stereo unspecified)
inactive: [13] 95 % of control | [15] 88 % of control

C=C(Cl)CSCC
inactive: dose: 100.0 mg/kg/injection, schedule: Q04DX003 (ip), vehicle: saline with Tween-80 111 % of control

CCCn1c(C)nc2c1C(=O)c1ccccc1C2=O
inactive: [10] 94 % of control | [14] 86 % of control | [11] 98 % of control | [16] 88 % of control | [12] 103 % of control | [18] 91 % of control

Reference: PubChem BioAssay AID248 (DTP/NCI, 2004)
